How the values were obtained:
Format in all cases: cell-based
human normal melanocytes = assay: melanin formation suppression test in human melanocytes (L-DOPA, absorbance 495 nm); conditions: 5 days, relative value, without addition of sample = 100
Description: A melanin formation suppression test was performed using human melanocytes (manufactured by KURABO INDUSTRIES LTD.). That is, human normal melanocytes amplified in Medium 254 medium (human melanocyte medium added with HMGS, manufactured by KURABO INDUSTRIES LTD.) was added to a 96 well plate at 10^4 cells per well, and cultured in a carbon dioxide incubator adjusted to 5% (v/v) carbon dioxide gas at 37° C. for about 24 hr. Then, pure water or a sample (conagenin) dissolved in pure water was added thereto to a final concentration of 0.1 mM, 1.0 mM or 10 mM. As a positive control, kojic acid (manufactured by Sigma Ltd.) was added to the same concentration. The cells were cultured for 5 more days under the same conditions. To the recovered cells was added 50 μl of cell suspension (PBS buffer containing Triton X-100 at 0.1% (v/v)). After thorough suspending, the suspension was stood at 4° C. for 1 hr. Thereto was added 50 μl of 10 mM L-DOPA (manufactured by Nacalai Tesque), and the mixture was incubated at 37° C. for 1 hr. Thereafter, the absorbance at 495 nm was measured by a plate reader (multiscanplus MKII, manufactured by Japan Flow Laboratory), and the melanin formation amount was measured (shown in a relative value to the value without addition of sample as 100).

[1] = tested on: normal skin fibroblasts derived from human; assay: fibroblast activating action evaluation test by the MTT reduction method; conditions: 48 hr culture, control = 100
Description: The present inventors performed a fibroblast activating action evaluation test by the MTT reduction method and using normal skin fibroblasts derived from human (see TIM Mosmann; Journal of Immunological Methods p 55-63, 1983).
Using DMEM (Gibco) containing 5% FBS (fetal bovine serum; purchased from NICHIREI CORPORATION), normal skin fibroblasts derived from human (manufactured by KURABO INDUSTRIES LTD.) were plated on a 96 well plate at a density of 2×10^4 cells/well, and cultured at 37° C., 5% CO2 for 24 hr. After removing the medium, the cells were washed with PBS(−) (NISSUI PHARMACEUTICAL CO., LTD.), the medium was changed to DMEM containing 1% FBS supplemented with each concentration of conagenin, and the cells were cultured at 37° C., 5% CO2. The blank was […] containing 1% FBS, which was free of test specimen. After culture for 48 hr, the absorbance at 550 nm was measured by MTT reduction method, based on which the MTT reduction amount was determined. The cell activation rate was shown in a percentage relative to the absorbance of additive-free cultured cell (control) as 100.

normal human fibroblasts = assay: hyaluronic acid production promoting effect and cell count; conditions: 72 hr; for number of cells: negative control 5.4 × 10^5; for amount of hyaluronic acid produced: negative control = 100, n=3 average
Description: The number of cells of normal human fibroblasts was adjusted to 5.0×10^4 cells/mL in Medium 106S medium containing 2% FBS, and plated on a 24 well plate by 1.0 mL. The cell was cultured under an atmosphere of 95% (V/V) air-5% (V/V) carbon dioxide gas at 37° C. for 24 hr, and then Medium 106S medium (free of FBS) containing various concentrations of conagenin was added. After further culture for 72 hr, the culture supernatant was collected, and the concentration of hyaluronic acid released into the medium was measured by an inhibitory method (hyaluronic acid measurement kit, manufactured by SEIKAGAKU CORPORATION) utilizing a hyaluronic acid-binding protein. The method of operation was as indicated in the attached explanation insert. The results obtained using PBS as a negative control instead of conagenin was taken as 100 and the amount ratio of hyaluronic acid in the medium was calculated.

human skin fibroblasts = assay: type I collagen gel contractability after glucose modification (glycated collagen); conditions: one week, negative control = 1
Description: A collagen solution (collagen was used trade name I-AC, manufactured by KOUKEN Co., Ltd.) was prepared on ice according to the explanation insert attached to the product, and the collagen was gelled in 12 wells at 37° C. A glucose-6-phosphate solution was added to the final concentration of 100 mM, and the mixture was incubated at 37° C. for 7 days to allow glycation reaction. Unreacted glucose-6-phosphate was removed, 1×10^5 cells/ml of fibroblast was sown on the collagen gel, and cultured for 5 hr using a 0.25% FBS/DMEM medium. The medium was removed, and […] or 0.25% FBS/DMEM medium containing PBS as negative control was added. The gel was detached from the dish wall, and the level of contraction of the gelled collagen was examined. As a positive control, DMEM medium containing 10% FBS was used. The medium was changed every 2 days and, one week later, the medium was removed by suction. The diameter of the collagen gel was measured, the area was calculated, and the area ratio was compared to that of the negative control as 1.

[2] = tested on: normal human skin fibroblasts; assay: type I collagen production promoting effect (PIP in culture supernatant) and cell count; conditions: for produced amount of collagen: 24 hr, relative value, negative control = 100, n=3 average; for number of cells: cells per well, counted visually after trypsin, negative control 4.9 × 10^5
Description: Normal human skin fibroblasts (manufactured by KURABO INDUSTRIES LTD.) were added to a 24 well plate at 5×10^4 cells per well. Using Medium 106S medium (manufactured by KURABO INDUSTRIES LTD.) containing 2% FBS, the cells were cultured under an atmosphere of 95% (V/V) air-5% (V/V) carbon dioxide gas at 37° C. for 24 hr. The medium was changed to Medium 106S medium (free of FBS) containing each sample, and the cells were cultured under the same conditions for 24 hr. After the completion of culture, the culture supernatant was taken to evaluate the type I collagen biosynthesizability and, to count the cells, the cells were harvested by a trypsin treatment. The samples used were two kinds of conagenin contents of 0.1 μM, 1 μm, 10 μM, 100 μM, 1 mM (final concentration), and magnesium L-ascorbyl phosphate (manufactured by Wako Pure Chemical Industries, Ltd., final concentration 100 μM) as a positive control (one added with PBS instead of the sample was used as a negative control).

In the case of `C[C@@H]([C@@H](C)O)[C@@H](O)C(=O)N[C@@](C)(CO)C(=O)O` [conagenin, (2S)—N-[(2R,3S,4R)2,4-dihydroxy-3-methyl-pentanoyl]-2-methylserine], the melanin formation amount (human normal melanocytes; 100 μM) is reported as 92, the melanin formation amount (human normal melanocytes; 1 mM) is reported as 66 and the melanin formation amount (human normal melanocytes; 10 mM) is reported as 17. The cell activation rate ([1]; 0.01 μM) was 105%, the cell activation rate ([1]; 0.05 μM) was 120% and the cell activation rate ([1]; 0.1 μM) was 125%. For the same compound, the cell activation rate ([1]; 1 μM) was 111%, the cell activation rate ([1]; 10 μM) was 113% and the cell activation rate ([1]; 40 μM) was 124%. The cell activation rate ([1]; 80 μM) was 113%, the cell activation rate ([1]; 160 μM) was 113% and the cell activation rate ([1]; 310 μM) was 113%. The number of cells (normal human fibroblasts; 1 μM) was 5.3 × 10^5, the “amount of hyaluronic acid produced” value (normal human fibroblasts; 1 μM) was 108 and the number of cells (normal human fibroblasts; 10 μM) was 5.5 × 10^5. The “amount of hyaluronic acid produced” value (normal human fibroblasts; 10 μM) was 120, the number of cells (normal human fibroblasts; 100 μM) was 5.3 × 10^5 and the “amount of hyaluronic acid produced” value (normal human fibroblasts; 100 μM) was 132. For the same compound, the number of cells (normal human fibroblasts; 1 mM) was 5.1 × 10^5, the “amount of hyaluronic acid produced” value (normal human fibroblasts; 1 mM) was 147 and the number of cells (normal human fibroblasts; 5 mM) was 4.0 × 10^5. For the same compound, the “amount of hyaluronic acid produced” value (normal human fibroblasts; 5 mM) was 199, the “collagen gel area ratio” value (human skin fibroblasts; 1 μM) was 0.81 and the “collagen gel area ratio” value (human skin fibroblasts; 100 μM) was 0.64. For the same compound, the “collagen gel area ratio” value (human skin fibroblasts; 5 mM) was 0.49, the “produced amount of collagen” value ([2]; 0.1 μM) was 196 and the number of cells ([2]; 0.1 μM) was 5.1 × 10^5. For the same compound, the “produced amount of collagen” value ([2]; 1 μM) was 197, the number of cells ([2]; 1 μM) was 5.1 × 10^5 and the “produced amount of collagen” value ([2]; 10 μM) was 204. For the same compound, the number of cells ([2]; 10 μM) was 5.2 × 10^5, the “produced amount of collagen” value ([2]; 100 μM) was 208 and the number of cells ([2]; 100 μM) was 4.8 × 10^5. The “produced amount of collagen” value ([2]; 1 mM) was 202 and the number of cells ([2]; 1 mM) was 4.7 × 10^5.

Source: patent publication US20090253794A1, “Fibroblast Activator, Collagen Production Promoter, Collagen Contraction Promoter, Hyaluronic Acid Production Promoter, ATP Production Promoter, Melanin Formation Inhibitor, and Agent for External Application to the Skin” (priority 2005, published 2009)
